We go through nine molecules from ChEMBL document CHEMBL1799939, “Synthesis and biological evaluation of novel thiazolidinedione analogues as 15-hydroxyprostaglandin dehydrogenase inhibitors” (J Med Chem, 2011).

Assay [1] has as its target T1, 15-hydroxyprostaglandin dehydrogenase [NAD(+)] (Homo sapiens, UniProt P15428).
T1 sequence (P15428 whole entry): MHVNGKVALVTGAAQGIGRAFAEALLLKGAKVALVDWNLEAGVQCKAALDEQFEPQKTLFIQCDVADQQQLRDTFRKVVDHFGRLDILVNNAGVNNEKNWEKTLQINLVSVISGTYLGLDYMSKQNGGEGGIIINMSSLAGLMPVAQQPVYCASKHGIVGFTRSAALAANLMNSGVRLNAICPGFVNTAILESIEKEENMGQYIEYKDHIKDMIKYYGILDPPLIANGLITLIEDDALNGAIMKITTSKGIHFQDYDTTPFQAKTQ
Nature of the assay: Inhibition of human 15-PGDH expressed in Escherichia coli using PGE2 as substrate and NAD+ as coenzyme assessed as formation of NADH by spectrophotometric analysis.

Assay [2] deals with T2, 15-hydroxyprostaglandin dehydrogenase [NAD(+)] (Homo sapiens) (UniProt P15428).
T2 sequence (whole entry): T1 sequence (P15428 whole entry)
Description: Inhibition of human 15-PGDH in human A549 cells assessed as increase in IL1-beta stimulated PGE2 production at 5 uM after 5 hrs by enzyme immunoassay. Type of assay: cell-based.

The next assay concerns HaCaT. Nature of the assay: Wound healing activity in human HaCaT cells assessed as re-epithelialization at 5 uM after 48 hrs by inverted microscopic analysis relative to control. Type of assay: functional, cell-based.
Assay [3] deals with T2, 15-hydroxyprostaglandin dehydrogenase [NAD(+)] (Homo sapiens). Description: Inhibition of human 15-PGDH in human A549 cells assessed as increase in IL1-beta stimulated PGE2 production after 5 hrs by enzyme immunoassay. It counts as cell-based.
Assay [4] deals with Cavia porcellus. Description: Increase in cochlear blood flow in guinea pig at 10 ug, iv measured after 40 mins. It counts as functional.
Assay [5] deals with Cavia porcellus. Nature of the assay: Increase in cochlear blood flow in guinea pig at 20 ug, iv measured after 50 mins. It counts as functional.
Assay [6] deals with A549. Description: Inhibition of COX1 expression in human A549 cells at 5 uM after 25 hrs by RT-PCR analysis. It counts as functional, cell-based.
Assay [7] deals with A549. Nature of the assay: Induction of PGT expression in human A549 cells at 5 uM after 25 hrs by RT-PCR analysis. Type of assay: functional, cell-based.
For assay [8], the system named is A549. Nature of the assay: Effect on COX2 expression in human A549 cells at 5 uM after 25 hrs by RT-PCR analysis. It counts as functional, cell-based.
The subject of assay [9] is A549. Description: Effect on MRP4 expression in human A549 cells at 5 uM after 25 hrs by RT-PCR analysis. Type of assay: functional, cell-based.

pIC50: −log10 of the molar value. The source made the active and inactive calls. The calls are words filed in the database; no cut-off is given here.

Take `O=C1N=C(O)S/C1=C\c1ccc(OCCCCC2CCCCC2)c(Cl)c1`: in assay [1], the negative-log IC50 (pIC50) is 7.62.

For `O=C1N=C(O)S/C1=C\c1ccc(OCCC2CCCCC2)c(Br)c1`, the outcome (in assay [2]; in the assay with HaCaT) was Active. In addition, the negative logarithm of the IC50 (pIC50) in assay [1] is 7.72.

For the molecule `O=C1NC(=O)/C(=C/c2ccc(OC3CCCCC3)c(Cl)c2)S1`, in [1], the negative logarithm of the IC50 (pIC50) was 7.33.

With `O=C1N=C(O)S/C1=C\c1ccc(OCCCC2CCCCC2)c(Cl)c1`, in assay [1], the negative-log IC50 (pIC50) is 8.00.

`COc1cc(/C=C2\SC(=O)N(C)C2=O)ccc1OCCC1CCCCC1`: the Activity result in [3] was “Dose-dependent effect”. Also, in assay [1], the pIC50 was below 4.30.

For `COc1cc(/C=C2\SC(=O)NC2=O)ccc1OCCC1CCCCC1`, the Activity was 22% with Cavia porcellus [4], “Dose-dependent effect” in assay [3] and 65% in the assay with Cavia porcellus [5]. The result (in [2]; with A549 [6]; in the assay on A549 [7]) was Active. Besides, in assay [1], the pIC50 was 7.60. For the same molecule, the outcome with A549 [8] and with A549 [9] was inactive.

In the case of `O=C1N=C(O)S/C1=C\c1ccc(OCCC2CCCCC2)cc1`, the outcome in assay [2] was Active.

In the case of `O=C1NC(=O)/C(=C/c2ccc(OCC3CCCCC3)c(Cl)c2)S1`, in [1], the pIC50 is 7.55.

Consider `O=C1N=C(O)S/C1=C\c1ccc(OCCC2CCCCC2)c(Cl)c1`, for which the result (in assay [2]; with A549 [6]; with A549 [7]) was Active. In [1], the negative-log IC50 (pIC50) was 8.10. Besides, the outcome with A549 [8] and in the assay with A549 [9] was inactive.
